In patent US12543738B2 (Bayer Aktiengesellschaft, priority 2020, dated 2026):

Key:
[1] = Measurement of LogP values by HPLC on reversed phase columns (EEC directive 79/831 Annex V.A8); assay type: physicochemical; settings: method [a]: LC-UV, acidic range, 0.1% formic acid in water and acetonitrile; compounds of formula (I-1), Table 1
Experimental: Calibration was done with straight-chain alkan2-ones (with 3 to 16 carbon atoms) with known LogP values (measurement of LogP values using retention times with linear interpolation between successive alkanones). Lambda-max-values were determined using UV-spectra from 200 nm to 400 nm and the peak values of the chromatographic signals

Alternaria brassicae = assay: In vivo preventive test on Alternaria brassicae (leaf spot on radish or cabbage); settings: 144 h, 500 ppm of active ingredient, preventive spray on radish or cabbage, evaluated 6 days after inoculation, read-out: efficacy
Summary of the method: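 Young radish or cabbage plants sprayed with compound dissolved in DMSO/acetone/Tween 80 and diluted in water; controls received solvent only. Leaves inoculated 24 h later by spraying an aqueous Alternaria brassicae spore suspension.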

Fusarium culmorum = Fusarium culmorum in vitro cell test; assay type: cell-based; settings: 96 h, 20 ppm of active ingredient, liquid culture, 4 days incubation, read-out: efficacy (inhibition of fungal growth)
Experimental: • Solvent: DMSO • Culture medium: 14.6 g anhydrous D-glucose (VWR), 7.1 g Mycological Peptone (Oxoid), 1.4 g granulated Yeast Extract (Merck), QSP 1 liter • Inoculum: spore suspension • Fungicides were solubilized in DMSO and the solution used to prepare the required range of concentrations. The final concentration of DMSO used in the assay was ≤1%.
A spore suspension of F. culmorum was prepared and diluted to the desired spore density.
Fungicides were evaluated for their ability to inhibit spore germination and mycelium growth in liquid culture assay. The compounds were added in the desired concentration to the culture medium with spores. After 4 days incubation, fungi-toxicity of compounds was determined by spectrometric measurement of mycelium growth. Inhibition of fungal growth was determined by comparing the absorbance values in wells containing the fungicides with the absorbance in control wells without fungicides.

[2] = system: Colletotrichum lindemuthianum; assay: In vivo preventive test on Colletotrichum lindemuthianum (leaf spot on bean); settings: 168 h, 500 ppm of active ingredient, preventive spray on bean, evaluated 7 days after inoculation, read-out: efficacy
Summary of the method: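 Young bean plants were sprayed with compound dissolved in DMSO/acetone/Tween 80 and diluted in water; controls received the solvent mixture alone. Leaves were spray-inoculated with C. lindemuthianum spore suspension 24 h after treatment (preventive).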

Pyricularia Oryzae = assay: microbe, parasite or virus in culture; assay type: cell-based; settings: 120 h, read-out: efficacy (inhibition of fungal growth)
Botrytis cinerea = assay: In vivo preventive test on Botrytis cinerea (grey mould); settings: 500 ppm of active ingredient, preventive spray on gherkin or cabbage, evaluated 4 to 5 days after inoculation, read-out: efficacy
Summary of the method: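 Young plants of gherkin or cabbage were sprayed with water-diluted compound formulated in DMSO/acetone/Tween 80, with solvent-only controls. Inoculation followed 24 h later by spraying an aqueous spore suspension of Botrytis cinerea onto leaves.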

Alternaria alternata = Alternaria alternata in vitro cell test; assay type: cell-based; settings: 120 h, 20 ppm of active ingredient, liquid culture, 5 days incubation, read-out: efficacy (inhibition of fungal growth)
Summary of the method: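 A. alternata spores in glucose–peptone–yeast extract liquid medium were exposed to DMSO-solubilized compounds. Mycelial growth was measured spectrophotometrically after 5 days. Inhibition was calculated from absorbance relative to compound-free controls.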

Sphaerotheca fuliginea = assay: In vivo preventive test on Sphaerotheca fuliginea (powdery mildew on cucurbits); settings: Podosphaera fuliginea, 192 h; 500 ppm of active ingredient; preventive spray on gherkin; evaluated 8 days after inoculation; read-out: efficacy
Summary of the method: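 Preventive spray on young gherkin plants with compound in DMSO/acetone/Tween 80 diluted in water; controls received solvent only. Leaves inoculated 24 h later by spraying an aqueous S. fuliginea spore suspension.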

Pyrenophora teres = assay: In vivo preventive test on Pyrenophora teres (net blotch on barley); settings: 240 h, 500 ppm of active ingredient, preventive spray on barley, evaluated 10 days after inoculation, read-out: efficacy
Summary of the method: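 Young barley plants sprayed preventively with compound dissolved in DMSO/acetone/Tween 80 and diluted in water; controls received solvent mixture only. Leaves inoculated 24 h later by spraying an aqueous P. teres spore suspension.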

[3] = system: Colletotrichum lindemuthianum; assay: Colletotrichum lindemuthianum in vitro cell test; assay type: cell-based; settings: 144 h, 20 ppm of active ingredient, liquid culture, 6 days incubation, read-out: efficacy (inhibition of fungal growth)
Summary of the method: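 Liquid-culture assay: C. lindemuthianum spores in glucose/peptone/yeast extract medium exposed to DMSO-solubilized compound, 6 days incubation. Inhibition of germination and mycelial growth derived from absorbance versus fungicide-free control wells.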

Septoria tritici = Septoria tritici in vitro cell test; assay type: cell-based; settings: Zymoseptoria tritici, 168 h; 20 ppm of active ingredient; liquid culture, 7 days incubation; read-out: efficacy (inhibition of fungal growth)
Summary of the method: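 Liquid culture of S. tritici spore suspension in defined mineral/sucrose medium with compounds added from DMSO solutions; measures inhibition of spore germination and mycelial growth. Growth inhibition derived from absorbance relative to untreated control wells.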

| SMILES | chromatographic logP [1] | pest or weed control at 500 ppm (Alternaria brassicae) [%] | inhibition at 20 ppm (Fusarium culmorum) [%] | pest or weed control at 500 ppm [2] [%] | inhibition at 20 ppm (Pyricularia Oryzae) [%] | pest or weed control at 500 ppm (Botrytis cinerea) [%] | inhibition at 20 ppm (Alternaria alternata) [%] | pest or weed control at 500 ppm (Sphaerotheca fuliginea) [%] | pest or weed control at 500 ppm (Pyrenophora teres) [%] | inhibition at 20 ppm [3] [%] | inhibition at 20 ppm (Septoria tritici) [%] |
| --- | --- | --- | --- | --- | --- | --- | --- | --- | --- | --- | --- |
| Cc1ccc(CC2CON=C(c3cc(C)nnc3Oc3cccc(Cl)c3)N2)c(Br)c1 (racemic) [Compound I-001, (5RS)-5-(2-bromo-4-methylbenzyl)-3-[3-(3-chlorophenoxy)-6-methylpyridazin-4-yl]-5,6-dihydro-4H-1,2,4-oxadiazine] | 3.94 | 90 to 100 | 90 to 100 | 90 to 100 | 90 to 100 | 90 to 100 | 90 to 100 | 90 to 100 | 90 to 100 | 90 to 100 | 90 to 100 |
| Cc1ccc(CC2CON=C(c3cc(C)nnc3Oc3cccc(C)c3F)N2)c(Cl)c1 (racemic) [Compound I-003, (5RS)-5-(2-chloro-4-methylbenzyl)-3-[3-(2-fluoro-3-methylphenoxy)-6-methylpyridazin-4-yl]-5,6-dihydro-4H-1,2,4-oxadiazine] | 3.78 | 90 to 100 | 90 to 100 | 90 to 100 | 90 to 100 | 90 to 100 | 90 to 100 | 90 to 100 | 90 to 100 | 90 to 100 | 90 to 100 |
| Cc1ccc(C)c(CC2CON=C(c3cc(C)nnc3Oc3cccc(Cl)c3F)N2)c1 (racemic) [Compound I-012, (5RS)-3-[3-(3-chloro-2-fluorophenoxy)-6-methylpyridazin-4-yl]-5-(2,5-dimethylbenzyl)-5,6-dihydro-4H-1,2,4-oxadiazine] | 3.8 | 90 to 100 | 90 to 100 | 90 to 100 | 90 to 100 | 90 to 100 | 90 to 100 | 90 to 100 | 90 to 100 | 90 to 100 | 90 to 100 |
